Laboratory results: ChEMBL document CHEMBL5506023, “Design, Synthesis, and Evaluation of Dihydropyrimidine Derivatives as Selective PDE1 Inhibitors for the Treatment of Liver Fibrosis” (J Med Chem, 2024)
pIC50: −log10 of the molar value. Calls of active or inactive are those of the source. The calls are words filed in the database; no cut-off is given here.

What was measured:
[1] = molecular target: High affinity 3',5'-cyclic-AMP phosphodiesterase 7A (Homo sapiens, UniProt Q13946); test: Inhibition of PDE7A (130 to 482 residues) (unknown origin) using 3H-cAMP as substrate
Chain of High affinity 3',5'-cyclic-AMP phosphodiesterase 7A (Q13946 whole entry, the tested form may be a part): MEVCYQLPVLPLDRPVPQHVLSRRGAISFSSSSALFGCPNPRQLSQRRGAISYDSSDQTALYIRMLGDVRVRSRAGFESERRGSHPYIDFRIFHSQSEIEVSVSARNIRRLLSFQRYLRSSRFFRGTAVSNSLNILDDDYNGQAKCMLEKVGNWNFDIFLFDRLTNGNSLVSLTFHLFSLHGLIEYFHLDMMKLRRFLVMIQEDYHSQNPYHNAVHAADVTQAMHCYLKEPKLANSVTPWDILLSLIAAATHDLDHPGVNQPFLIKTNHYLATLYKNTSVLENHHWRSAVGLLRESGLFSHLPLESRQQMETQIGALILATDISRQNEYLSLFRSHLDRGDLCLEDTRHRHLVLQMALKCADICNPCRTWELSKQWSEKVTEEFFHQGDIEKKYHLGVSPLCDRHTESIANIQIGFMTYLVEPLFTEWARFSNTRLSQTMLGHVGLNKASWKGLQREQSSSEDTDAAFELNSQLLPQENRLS

[2] = Observed clearance in Sprague-Dawley rat at 2.5 mg/kg,iv administration; assay type: ADME, organism-based; conditions: in vivo
[3] = molecular target: cGMP-dependent 3',5'-cyclic phosphodiesterase (Homo sapiens, UniProt O00408); test: Inhibition of PDE2A (580 to 919 residues) (unknown origin) using 3H-cGMP as substrate
Chain of cGMP-dependent 3',5'-cyclic phosphodiesterase (O00408 whole entry, the tested form may be a part): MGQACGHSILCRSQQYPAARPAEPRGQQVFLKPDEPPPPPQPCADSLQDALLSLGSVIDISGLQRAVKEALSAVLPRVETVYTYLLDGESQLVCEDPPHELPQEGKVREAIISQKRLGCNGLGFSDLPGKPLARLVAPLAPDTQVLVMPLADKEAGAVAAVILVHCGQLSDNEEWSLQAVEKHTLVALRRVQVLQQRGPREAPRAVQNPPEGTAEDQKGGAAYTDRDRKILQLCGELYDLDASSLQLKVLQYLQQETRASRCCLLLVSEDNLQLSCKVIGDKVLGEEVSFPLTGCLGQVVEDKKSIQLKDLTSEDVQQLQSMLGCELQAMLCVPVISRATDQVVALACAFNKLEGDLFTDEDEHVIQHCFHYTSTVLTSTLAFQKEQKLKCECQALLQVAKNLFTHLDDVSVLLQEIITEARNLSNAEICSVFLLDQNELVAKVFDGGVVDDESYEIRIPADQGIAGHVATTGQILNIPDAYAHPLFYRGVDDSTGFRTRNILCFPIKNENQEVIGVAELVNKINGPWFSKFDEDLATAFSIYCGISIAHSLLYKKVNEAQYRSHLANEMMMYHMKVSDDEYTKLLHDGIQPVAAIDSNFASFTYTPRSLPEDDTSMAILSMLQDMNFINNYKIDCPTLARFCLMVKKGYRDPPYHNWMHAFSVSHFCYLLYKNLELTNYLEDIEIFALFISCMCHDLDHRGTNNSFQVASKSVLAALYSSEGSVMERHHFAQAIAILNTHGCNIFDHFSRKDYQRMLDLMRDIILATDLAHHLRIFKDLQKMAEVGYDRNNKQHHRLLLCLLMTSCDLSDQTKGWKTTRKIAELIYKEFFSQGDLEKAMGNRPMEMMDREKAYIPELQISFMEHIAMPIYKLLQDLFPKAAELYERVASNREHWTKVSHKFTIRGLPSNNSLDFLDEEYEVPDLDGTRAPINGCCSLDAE

[4] = Selectivity index, ratio of IC50 for inhibition of PDE1C2 (147 to 531 residues) (unknown origin) using 3H-cGMP as substrate to IC50 for inhibition of PDE10A (449 to 770 residues) (unknown origin) using 3H-cAMP as substrate
[5] = Cmax in Sprague-Dawley rat at 2.5 mg/kg,iv administration; assay type: ADME, organism-based; conditions: in vivo
Rattus norvegicus [6] = test: Antifibrotic activity against bile duct ligation induced Sprague-Dawley rat liver fibrosis model assessed as reduction in AST level at 2.5 mg/kg,ip administrated once daily for 21 days; assay type: functional, organism-based; conditions: time 21.0 day
[7] = AUC (0 to infinity) in Sprague-Dawley rat at 2.5 mg/kg,iv administration; assay type: ADME, organism-based; conditions: in vivo
[8] = molecular target: T1, cGMP-inhibited 3',5'-cyclic phosphodiesterase 3A (Homo sapiens, UniProt Q14432); test: Inhibition of PDE3A (679 to 1087 residues) (unknown origin) using 3H-cAMP as substrate at 5000 nM relative to control
T1 sequence (Q14432 whole entry, the tested form may be a part): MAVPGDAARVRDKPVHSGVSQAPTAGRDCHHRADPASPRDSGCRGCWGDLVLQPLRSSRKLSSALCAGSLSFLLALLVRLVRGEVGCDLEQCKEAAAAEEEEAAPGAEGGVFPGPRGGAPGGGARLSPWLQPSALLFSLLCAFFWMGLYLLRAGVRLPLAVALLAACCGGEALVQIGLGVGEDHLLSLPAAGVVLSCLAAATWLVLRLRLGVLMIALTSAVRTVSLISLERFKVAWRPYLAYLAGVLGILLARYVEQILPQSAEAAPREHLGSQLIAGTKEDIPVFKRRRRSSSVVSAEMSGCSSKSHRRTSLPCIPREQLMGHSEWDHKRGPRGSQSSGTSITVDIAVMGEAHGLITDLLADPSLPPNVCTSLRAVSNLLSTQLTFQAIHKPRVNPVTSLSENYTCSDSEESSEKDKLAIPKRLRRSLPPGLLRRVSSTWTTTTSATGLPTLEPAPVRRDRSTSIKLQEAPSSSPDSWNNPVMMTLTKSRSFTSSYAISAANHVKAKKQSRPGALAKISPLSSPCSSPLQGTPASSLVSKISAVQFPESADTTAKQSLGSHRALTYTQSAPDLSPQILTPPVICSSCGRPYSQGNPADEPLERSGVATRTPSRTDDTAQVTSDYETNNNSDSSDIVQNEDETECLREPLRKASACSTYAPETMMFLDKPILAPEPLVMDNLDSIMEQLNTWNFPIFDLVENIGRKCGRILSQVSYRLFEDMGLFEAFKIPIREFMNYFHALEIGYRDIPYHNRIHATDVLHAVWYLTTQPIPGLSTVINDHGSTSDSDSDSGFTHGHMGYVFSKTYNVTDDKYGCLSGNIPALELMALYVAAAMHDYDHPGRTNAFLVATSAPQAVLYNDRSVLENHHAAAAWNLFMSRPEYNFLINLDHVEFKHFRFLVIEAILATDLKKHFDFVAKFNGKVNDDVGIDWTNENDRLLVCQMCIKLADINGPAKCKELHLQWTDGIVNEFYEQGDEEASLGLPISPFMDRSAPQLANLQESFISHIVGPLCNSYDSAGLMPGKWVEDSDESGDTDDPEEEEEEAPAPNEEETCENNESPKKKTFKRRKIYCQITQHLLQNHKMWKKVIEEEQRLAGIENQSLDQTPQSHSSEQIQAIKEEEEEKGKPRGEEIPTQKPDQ

[9] = Acute toxicity in Kunming mouse assessed as lethal dose at po administration for 14 days; assay type: organism-based; conditions: in vivo, 336 h, time 14 day
Rattus norvegicus [10] = test: Antifibrotic activity against bile duct ligation induced Sprague-Dawley rat liver fibrosis model assessed as downregulation of collagen I expression in liver at 2.5 mg/kg,ip administrated once daily for 21 days by Western blotting analysis; assay type: functional, organism-based; conditions: time 21.0 day
[11] = molecular target: T1, cGMP-inhibited 3',5'-cyclic phosphodiesterase 3A; test: Inhibition of PDE3A (679 to 1087 residues) (unknown origin) using 3H-cAMP as substrate
Cytochrome P450 2C19 = Cytochrome P450 2C19 (Homo sapiens, UniProt P33261); test: Inhibition of CYP2C19 in human liver microsomes in presence of NADPH; assay type: ADME, Microsome
Chain of Cytochrome P450 2C19 (P33261 whole entry): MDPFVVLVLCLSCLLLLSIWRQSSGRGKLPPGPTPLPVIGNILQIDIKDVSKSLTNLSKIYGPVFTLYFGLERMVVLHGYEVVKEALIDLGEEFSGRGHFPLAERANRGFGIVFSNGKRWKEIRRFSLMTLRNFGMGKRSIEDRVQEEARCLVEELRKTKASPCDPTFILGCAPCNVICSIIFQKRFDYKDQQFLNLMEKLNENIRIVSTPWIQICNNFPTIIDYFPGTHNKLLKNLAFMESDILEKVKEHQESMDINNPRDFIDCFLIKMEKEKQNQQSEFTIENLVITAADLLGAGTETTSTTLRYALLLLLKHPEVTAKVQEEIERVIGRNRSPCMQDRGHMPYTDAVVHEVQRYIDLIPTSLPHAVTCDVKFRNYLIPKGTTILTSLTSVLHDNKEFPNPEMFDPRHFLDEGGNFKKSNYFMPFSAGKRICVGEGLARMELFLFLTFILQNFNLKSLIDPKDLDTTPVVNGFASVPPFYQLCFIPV

Cytochrome P450 2D6 = Cytochrome P450 2D6 (Homo sapiens, UniProt P10635); test: Inhibition of CYP2D6 in human liver microsomes in presence of NADPH; assay type: ADME, Microsome
[12] = Half life in rat liver microsomes at 1.5 uM; assay type: ADME, Microsome
Rattus norvegicus [13] = test: Antifibrotic activity against bile duct ligation induced Sprague-Dawley rat liver fibrosis model assessed as increase in cGMP level in liver at 2.5 mg/kg,ip administrated once daily for 21 days by ELISA; assay type: functional, organism-based; conditions: time 21.0 day
[14] = molecular target: Voltage-gated inwardly rectifying potassium channel KCNH2 (Homo sapiens, UniProt Q12809); test: Inhibition of hERG expressed in CHO cells by automated patch clamp electrophysiology analysis; assay type: toxicity, cell-based
Chain of Voltage-gated inwardly rectifying potassium channel KCNH2 (Q12809 whole entry, the tested form may be a part): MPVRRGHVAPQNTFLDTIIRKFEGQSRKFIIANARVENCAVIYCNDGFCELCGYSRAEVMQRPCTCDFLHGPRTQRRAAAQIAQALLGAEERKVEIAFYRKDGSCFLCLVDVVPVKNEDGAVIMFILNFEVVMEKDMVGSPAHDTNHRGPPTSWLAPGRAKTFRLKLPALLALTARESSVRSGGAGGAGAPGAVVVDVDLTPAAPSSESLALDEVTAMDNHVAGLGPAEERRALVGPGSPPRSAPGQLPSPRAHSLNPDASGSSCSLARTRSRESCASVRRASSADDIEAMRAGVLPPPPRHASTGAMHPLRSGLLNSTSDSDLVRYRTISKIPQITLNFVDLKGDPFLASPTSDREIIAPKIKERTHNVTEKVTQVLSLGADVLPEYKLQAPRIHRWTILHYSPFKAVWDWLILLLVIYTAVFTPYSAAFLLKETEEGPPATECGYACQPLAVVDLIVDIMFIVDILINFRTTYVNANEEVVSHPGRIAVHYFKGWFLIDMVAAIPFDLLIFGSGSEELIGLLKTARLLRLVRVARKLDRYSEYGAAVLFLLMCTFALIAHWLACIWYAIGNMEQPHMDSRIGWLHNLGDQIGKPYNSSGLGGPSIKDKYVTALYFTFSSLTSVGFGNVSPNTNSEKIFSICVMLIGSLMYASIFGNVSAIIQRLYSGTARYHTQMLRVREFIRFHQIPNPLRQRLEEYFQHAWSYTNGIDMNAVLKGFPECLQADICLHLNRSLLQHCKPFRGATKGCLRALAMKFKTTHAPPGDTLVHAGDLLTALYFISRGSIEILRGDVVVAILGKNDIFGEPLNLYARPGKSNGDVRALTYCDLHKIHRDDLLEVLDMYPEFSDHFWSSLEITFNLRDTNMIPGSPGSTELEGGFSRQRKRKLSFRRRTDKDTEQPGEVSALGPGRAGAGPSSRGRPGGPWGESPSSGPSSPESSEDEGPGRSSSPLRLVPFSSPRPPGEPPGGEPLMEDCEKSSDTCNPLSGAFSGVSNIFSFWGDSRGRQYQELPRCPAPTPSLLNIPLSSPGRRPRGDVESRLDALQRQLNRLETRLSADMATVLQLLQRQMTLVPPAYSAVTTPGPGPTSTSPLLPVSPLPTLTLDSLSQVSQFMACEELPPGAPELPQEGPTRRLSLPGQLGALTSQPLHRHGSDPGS

[15] = molecular target: cGMP-specific 3',5'-cyclic phosphodiesterase (Homo sapiens, UniProt O76074); test: Inhibition of PDE5A (535 to 860 residues) (unknown origin) using 3H-cGMP as substrate
Rattus norvegicus [16] = test: Antifibrotic activity against bile duct ligation induced Sprague-Dawley rat liver fibrosis model assessed as increase in cAMP level in liver at 2.5 mg/kg,ip administrated once daily for 21 days by ELISA; assay type: functional, organism-based; conditions: time 21.0 day
[17] = molecular target: High affinity cAMP-specific and IBMX-insensitive 3',5'-cyclic phosphodiesterase 8A (Homo sapiens, UniProt O60658); test: Inhibition of PDE8A (480 to 820 residues) (unknown origin) using 3H-cAMP as substrate
Chain of High affinity cAMP-specific and IBMX-insensitive 3',5'-cyclic phosphodiesterase 8A (O60658 whole entry, the tested form may be a part): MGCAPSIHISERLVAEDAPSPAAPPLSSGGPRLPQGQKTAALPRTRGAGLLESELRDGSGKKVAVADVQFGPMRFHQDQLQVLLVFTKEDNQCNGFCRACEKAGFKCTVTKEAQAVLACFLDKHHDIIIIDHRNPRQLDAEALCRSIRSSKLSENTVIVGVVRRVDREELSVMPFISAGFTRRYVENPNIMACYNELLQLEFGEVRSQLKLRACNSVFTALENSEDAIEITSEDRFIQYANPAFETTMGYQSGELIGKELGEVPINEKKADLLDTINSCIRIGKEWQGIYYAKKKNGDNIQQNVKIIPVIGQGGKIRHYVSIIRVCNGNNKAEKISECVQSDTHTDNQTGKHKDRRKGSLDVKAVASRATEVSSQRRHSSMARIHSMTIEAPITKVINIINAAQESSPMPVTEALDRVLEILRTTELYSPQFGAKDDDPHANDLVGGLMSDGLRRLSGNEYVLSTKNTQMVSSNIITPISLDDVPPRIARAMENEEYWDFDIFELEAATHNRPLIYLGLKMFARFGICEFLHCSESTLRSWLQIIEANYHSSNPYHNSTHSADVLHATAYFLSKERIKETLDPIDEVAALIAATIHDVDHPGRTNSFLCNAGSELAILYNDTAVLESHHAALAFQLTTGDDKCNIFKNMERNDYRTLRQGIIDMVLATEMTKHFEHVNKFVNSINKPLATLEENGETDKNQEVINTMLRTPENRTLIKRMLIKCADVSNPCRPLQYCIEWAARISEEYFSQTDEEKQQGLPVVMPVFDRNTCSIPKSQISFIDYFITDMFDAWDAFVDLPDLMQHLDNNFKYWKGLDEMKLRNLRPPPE

Cytochrome P450 3A4 = Cytochrome P450 3A4 (Homo sapiens, UniProt P08684); test: Inhibition of CYP3A4-M in human liver microsomes in presence of NADPH; assay type: ADME, Microsome
[18] = Half life in Sprague-Dawley rat at 2.5 mg/kg,iv administration; assay type: ADME, organism-based; conditions: in vivo
Rattus norvegicus [19] = test: Antifibrotic activity against bile duct ligation induced Sprague-Dawley rat liver fibrosis model assessed as reduction in liver damage at 2.5 mg/kg,ip administrated once daily for 21 days by hematoxylin and eosin staining based analysis; assay type: functional, organism-based; conditions: time 21.0 day

CC1=C(C(=O)OCC2CCCCC2)C(c2ccc(OC(F)F)c(OCC3CC3)c2)N(C(=O)SCc2ccccc2)C(=O)N1 (configuration not stated)
pIC50 [1]: < 5.30 | clearance [2]: 6.56 mL/min/kg | pIC50 [3]: 5.45 | Ratio IC50 [4]: 60 | Cmax [5]: 25000 ng/mL | Activity (Rattus norvegicus [6]): Active | AUC(0-inf) [7]: 6320 ng·h/mL | inhibition [8]: < 50% | LD [9]: > 1500 mg/kg | Activity (Rattus norvegicus [10]): Active | pIC50 [11]: < 5.30 | pIC50 (Cytochrome P450 2C19): < 4.60 | pIC50 (Cytochrome P450 2D6): < 4.60 | half-life at 1.5 µM [12]: 0.235 h | Activity (Rattus norvegicus [13]): inactive | pIC50 [14]: < 4.40 | pIC50 [15]: 5.78 | Activity (Rattus norvegicus [16]): Active | pIC50 [17]: 5.75 | pIC50 (Cytochrome P450 3A4): < 4.60 | half-life [18]: 7.51 h | Activity (Rattus norvegicus [19]): Active
